Measurements published in patent US20030181434A1, “AlphaAED and betaAED regulation of nuclear transcription, gene regulation, and/or gene expression” (priority 2002, published 2003).

Columns and labels:
COX-2 = test: Western blot of COX-2 level in Dunning R3327 AT-1 rat prostate tumors after treatment; type: in vivo; conditions: untreated control = 100 R.A.U.
From the text: (§1) Dunning R3327, AT-1, rat prostate cancer, is a completely hormone-refractory tumor cell line. […] It lacks measurable quantities of receptor for androgens and estrogens. The clinical behavior of this tumor is not influenced by presence or absence of sex steroids (Isaacs et al, Prostate 9:261-281 (1986)).
(§2) After an initial passage in young male rats, the tumor was implanted dorsally into young intact (not castrated) male Copenhagen-Fischer rats (Copenhagen, Denmark) of approximately 250 grams. Tumor transplants were allowed to grow until palpable and visible and reached a mean size of 10 mm in diameter prior to treatment. The vehicle for the drug was Polyethylene glycol 400 and ethanol 1:1. The drug was injected adjacent to the tumor. […]
(§3) Thawed tumors were homogenized in ice cold lysis-buffer (160 mM NaCl, 10 mM […], 2 mM […], 0.5% Triton X-100, 100 μg/ml phenylmetylsulfonyl fluoride, 1 μg/ml leupeptin and 2 μg/ml aprotinin), placed on ice for 15 minutes and following clarification centrifuged for 10 minutes at 13,000 g. Protein content of homogenates were determined by Lowry assay Q.
(§4) Protein in lysates ([…]) were separated by electrophoresis using 8% SDS-PAGE, the isolated proteins were transferred onto a nitrocellulose membrane (Amersham) in a trans-blot electrophoretic transfer cell (Bio-Rad Laboratories). […] Optical density was measured densitometrically. […]

PPARγ = test: Western blot of PPARγ level in Dunning R3327 AT-1 rat prostate tumors after treatment; type: in vivo; conditions: untreated control = 100 R.A.U.
From the text: as §1, §2, §3, §4

NF-κB = tested on: NF-κB
From the text: as §1, §2, §3, §4

[1] = AT-1 tumor samples, 96 hours after single 10 mg dose injected adjacent to tumor
[2] = AT-1 tumor samples at 19 days, βAED single 80 mg dose, or αAED 10 mg then βAED 80 mg after 96 hours

SMILES | COX-2 level, mean value (COX-2; [1]) | PPARγ level, mean value (PPARγ; [1]) | effect on levels of NF-κB (in words) (NF-κB; finding stated in the description, no value given) | COX-2 level, mean value (COX-2; [2]) | PPARγ level, mean value (PPARγ; [2]) | NF-κB level, mean value (NF-κB; AT-1 tumor samples at 19 days after single 80 mg dose, untreated control = 100 R.A.U.)
C[C@]12CC[C@H]3[C@@H](CC=C4C[C@@H](O)CC[C@@]43C)[C@@H]1CC[C@H]2O [αAED, Δ5-Androstene-3β, 17α-diol] | 203 R.A.U. | 190 R.A.U. | increases |  |  | 
C[C@]12CC[C@H]3[C@@H](CC=C4C[C@@H](O)CC[C@@]43C)[C@@H]1CC[C@@H]2O [βAED, Δ5-Androstene-3β, 17β-diol] |  |  |  | 135 R.A.U. | 47 R.A.U. | 68±13.6 R.A.U.
